Measurements as given in US20130039956A1, “USE OF NITROCARBOXYLIC ACIDS FOR THE TREATMENT, DIAGNOSIS AND PROPHYLAXIS OF AGGRESSIVE HEALING PATTERNS” (priority 2010, published 2013).

Experiments:
Type in all cases: cell-based
[1] = system: Murine macrophage-like cells RAW 264.7 and murine L929 fibroblasts; test: Monocyte/fibroblast co-culture on coated surgical suture material; conditions: dip-coated suture material, 24 and 48 hours; compared with native FA
From the text: In order to determine immunoreactions to foreign material and its consequence on fibrogenesis, co-cultures of fibroblasts and monocytes were used. Commercially available suture materials (propylene, polyamide, and silk) were dip-coated with corresponding native and nitrated fatty acids. Untreated suture material served as control. Treated and untreated suture materials were out in small pieces and placed in a 96-well plate.
Murine macrophage-like cells RAW 264.7 and murine L929 fibroblasts were cultured to a population density of 5×10(5) each. Cell suspensions were merged achieving a cellularity of approximately 2.5×10(5) cell/ml of each cell population which were added to the wells. The suture material samples were fully covered by the suspension. Wells were continuously and gently shaken throughout the incubation period.
Supernatants were collected for assays after 24 and 48 hours and analyzed for profibrotic cytokines IL-13, IL-4, and IL-6, TGF-β1, collagen I.

[2] = system: Cardiomyocytes; test: TGF-β1-inducible formation of extracellular matrix in cardiomyocytes under shear stress; conditions: 10-100 μmol, shear stress up to 100 dyn/cm^2; compared with native FA
Procedure: Characterizing features of the fibrous remodelling in the heart are accentuated expression and deposition of extracellular matrix proteins (ECM). This has been attributed to increased mechanical forces via autocrine release of transforming growth factor-beta (TGF-beta). […] An established cell culture model was used to investigate the effect of shear stress on cardiomyocytes. Cardiomyocytes were cultured and transferred to a matrigel substrate. Plates with confluenced cells were placed into a shear force injury device (SFID). The SFID design is based on a cone-and-plate construction which is a well-defined rheological model in which a homogenously distributed laminar flow over the surface of the cells is generated by a rotating cone. The conical surface is positioned above a stationary flat plate and the fluid medium between these two surfaces is set in motion by rotating the cone to create a uniform level of fluid shear stress throughout the entire surface of the cells cultured on the coverslips.
A peak shear stress of 100 dyn/cm^2 could be applied without significant cell detachment enabling a maximum injury severity of 46%. Cells were exposed to FCS 1% without or with nitro-fatty acid, and the corresponding native fatty acid in a dosage range between 10 μmol and 100 μmol, 10 seconds before shear force application. Shear force peaks up to 100 dyn/cm^2 with a duration of 30 msec each with a repetition frequency of 60/minute were applied for 5, 10, 30 and 60 minutes. Thereafter the cell plates were washed and placed in FCS 1% for 24 hrs. The supernatant of the shear force investigation as well as that of the following culture phase was analysed. It could be shown that TGF-beta and ECM proteins (collagen I, fibronectin, laminin, elastin) increased after treatment in the control groups.

[3] = system: fibroblasts; test: Biofouling and cell adherence at prosthetic materials (dip-coated polymer films); conditions: compared with native FA (control)
Procedure: Polymer scaffolds (polyurethane, polyvinylchloride, polylactate) which are used as implant materials were investigated. Solid and porous (pore sizes ranging from 50 to 150 micrometer) films of pure polymer scaffolds were cut into pieces (5×5 mm). After cleaning with NaOH and ethanol, they were dip-coated with native and nitrocarboxylic acids. Dip-coated pieces were suspended in a tube filled with argon and heated at 60° C. for 24 hours in the dark. Film pieces with and without coating were placed in a borosilicate glass tube that allowed fixation of two margins of the film pieces at the wall of the glass tube, thus, enabling a upright standing position in the center of the tube. Tubes were filled with various solutions for 12 hours. Solutions consisted of the following: 0.9% saline; 2% bovine albumin; 2% bovine albumin with addition of either fibronectin or laminin; and bovine serum. At the end of the exposure time, tubes were gently washed twice with 0.9% saline solution. One set of films was analyzed for protein absorption using a specific antibody staining method. An identically prepared set of films was further processed for cell cultures. A suspension containing preincubated fibroblasts in 1% FCS was added to the film-containing tubes. The tubes were tilted and adjusted in such a position so that the films were in a vertical orientation within the suspension. […] Tubes had two openings at the upper half (of the tilt tubes) that allowed free exchange of the atmosphere above the solution with the surrounding atmosphere. Sets were incubated at standard conditions for 24, 48, and 96 hours, respectively. Thereafter, films were carefully removed and rinsed with 0.9% saline solution. The cellularity and the shape of the cells on both sides of the films were evaluated after staining (Gimsa) using a reflected light microscope.

[4] = system: human umbellical endothelial cells (HUVEC); test: Adhesion, propagation and growth of endothelial cells on coated polystyrene films; conditions: days 3, 7, 14, compared with native FA
Procedure: Polystyrene scaffolds were prepared and pretreated in the same manner as performed in example 1 by using the same nitrocarboxylic acids as listed in table 1. The film samples were placed in a culture dish containing a gel matrix, in which human umbellical endothelial cells (HUVEC) had been allowed to grow to confluence. The culture medium consisted of 5% FCS, which was replaced every 5 days. Cultivation was performed according to standard conditions. Films were evaluated at days 3, 7, and 14 after careful extraction from the culture dishes, rinsing with saline solution, and staining with methylene blue. Using a reflected light microscope, the films were immediately examined to evaluate the following: Propagation of cells to the film center, cell confluidity, multilayer formation, and cell shape.
Further: key: 0: not superior to native FA (control); +: Superior to native FA; ++: superior to both; +++: outstanding effect.

| Compound | Relative effect on profibrotic cytokines and collagen I on suture material [1] | Relative efficacy to suppress TGF-beta and ECM proteins in cardiomyocytes [2] | Relative differences: effect on biofouling and cell adherence [3] | Relative differences: effect on adhesion, propagation and growth of endothelial cells [4] |
| --- | --- | --- | --- | --- |
| CCCCCCCC/C=C(\CCCCCCCC(=O)O)[N+](=O)[O-] [compound 9, 9-nitro-trans-oleic acid] | + | + | + | + |
| 9,10-nitro-trans-oleic acid [compound 15] | + | + | ++ | + |
| CCCCC/C=C(/C/C=C\C/C=C\C/C=C\C/C=C\CCC(=O)O)[N+](=O)[O-] [compound 5, 16-nitro-all-cis-4,7,10,13,16-docosapentaenoic acid] | + | + | ++ | ++ |
| CCCCCC/C=C(\CCCCCCCC(=O)O)[N+](=O)[O-] [compound 16, 9-nitro-9-trans-hexadecenoic acid] | + |  | ++ | + |
| CCCCCC=CCC=C(CC=CCC=CCCCC(=O)O)[N+](=O)[O-] [compound 14, 11-nitro-5,8,11,14-eicosatrienoic acid] | + | + | + | + |
| CCCCCCCC/C(=C/CCCCCCCC(=O)O)[N+](=O)[O-] [compound 3, 10-nitro-cis-oleic acid] | ++ | ++ | ++ | ++ |
| CC/C=C\C/C=C\C/C(=C/C/C=C\C/C=C\CCCCCC(=O)O)[N+](=O)[O-] [compound 7, 14-nitro-all-cis-7,10,13,16,19-docosapentaenoic acid] | + | + | ++ | + |
| CCCCCC=CCC=C(CC=CC/C=C\CCCC(=O)O)[N+](=O)[O-] [compound 22, 11-nitro-cis-5,8,11,14-eicosatetraenoic acid] | + | ++ | + | ++ |
| CCCCCC/C=C(/CCCCCCCC(=O)O)[N+](=O)[O-] [compound 13] | + |  | + | ++ |
| CCCCC/C=C(/C/C=C\C/C=C(/C/C=C\CCCC(=O)O)[N+](=O)[O-])[N+](=O)[O-] [compound 18, 8,14-nitro-cis-5,8,11,14-eicosatetraenoic acid] | 0 |  | + | + |
| CCC=CCC=C(CC=CCC=CCC=CCC=C(CCC(=O)O)[N+](=O)[O-])[N+](=O)[O-] [compound 19, 4,16-nitro-docosahexaenoic acid] | + |  | + | + |
| CCCCCCCC/C(=C\CCCCCCCC(=O)O)[N+](=O)[O-] [compound 12, 10-nitro-trans-oleic acid] | + |  | + | + |
| 5-nitro-eicosatrienoic acid [compound 4] | + | + | + | + |
| CCCCCCCCCCC/C=C(/CCCCC(=O)O)[N+](=O)[O-] [compound 21, 6-nitro-cis-6-octadecenoic acid] | + | ++ |  | 0 |
| CC/C=C\C/C=C\C/C=C(/CCCCCCCC(=O)O)[N+](=O)[O-] [compound 6, 9-nitro-all-cis-9-12,15-octadecatrienoic acid] | + | +++ | ++ | ++ |
| CCCCCCCC/C=C(/CCCCCCCC(=O)O)[N+](=O)[O-] [compound 1, 9-nitro cis-oleic acid] | ++ | ++ | ++ | ++ |
| CCCCC/C=C\C/C(=C\CCCCCCCC(=O)O)[N+](=O)[O-] [compound 2, 10-nitro-cis-linoleic acid] | +++ | ++ | ++ | +++ |
| CCCCC=C(C=CC=CCCCCCCCC(=O)O)[N+](=O)[O-] [compound 11, 13-nitro-octadeca-9,11,13-trienoic acid] | 0 | + | + | + |
| CCCCCCCC/C=C(/CCCCCCCCCCCCCC(=O)O)[N+](=O)[O-] [compound 8, 15-nitro-cis-15-tetracosenoic acid] | + | + | + | + |
| 9,10-nitro-cis-oleic acid [compound 10] | +++ | ++ | +++ | ++ |
| CCCCCCCC/C=C(/CCCCCCCCCCCC(=O)O)[N+](=O)[O-] [compound 17, 13-nitro-cis-13-docosenoic acid] | + |  | + | 0 |
